Measured values published in the NIST ThermoML archive (doi:10.1016/j.jct.2013.10.034).

How the values were obtained:
[1] = Liquid; for viscosity / mass density: 100 kPa; for viscosity: Falling or rolling sphere viscometry; for mass density: Vibrating tube method; for vapor or sublimation pressure: Ebulliometric method (Recirculating still)
[2] = xn = mol fraction of the nth substance listed; conditions: 100 kPa, Liquid, x2 = 0; for viscosity: Falling or rolling sphere viscometry; for mass density: Vibrating tube method

O [water]
[1]
Conditions	mass density [kg/m3]	vapor or sublimation pressure [kPa]	viscosity [mPa·s]
298.15 K	–	–	0.89
303.15 K	–	–	0.808
308.15 K	–	–	0.74
313.15 K	992.15	–	0.681
318.15 K	990.14	–	0.63
323.15 K	987.93	–	0.593
328.15 K	985.61	15.8	0.56
333.15 K	983.17	–	0.528
338.15 K	980.3	25.1	0.5
343.15 K	978.1	–	0.473
348.15 K	–	38.6	–
358.15 K	–	57.9	–
368.15 K	–	84.4	–

O [water] + CCCC[N+]1(C)CCCC1.N#CN=C=[N-]
[2]
Conditions	mass density [kg/m3]	viscosity [mPa·s]
298.15 K	–	0.89
303.15 K	–	0.808
308.15 K	–	0.74
313.15 K	992.15	0.681
318.15 K	990.14	0.63
323.15 K	987.93	0.593
328.15 K	985.61	0.56
333.15 K	983.17	0.528
338.15 K	980.3	0.5
343.15 K	978.1	0.473

O [water] + CCCC[N+]1(C)CCCCC1.N#C[N-]C#N
[2]
Conditions	mass density [kg/m3]	viscosity [mPa·s]
298.15 K	–	0.89
303.15 K	–	0.808
308.15 K	–	0.74
313.15 K	992.15	0.681
318.15 K	990.14	0.63
323.15 K	987.93	0.593
328.15 K	985.61	0.56
333.15 K	983.17	0.528
338.15 K	980.3	0.5
343.15 K	978.1	0.473

CCCC[N+]1(C)CCCC1.N#CN=C=[N-] [1-butyl-1-methylpyrrolidinium dicyanamide]
[1]
Conditions	mass density [kg/m3]	viscosity [mPa·s]
298.15 K	1019.2	34.74
303.15 K	1016.38	29.33
308.15 K	1013.58	25.09
313.15 K	1010.79	21.7
318.15 K	1008	18.95
323.15 K	1005.23	16.72
328.15 K	1002.48	14.84
333.15 K	999.74	13.28
338.15 K	997	11.96
343.15 K	994.28	10.82

CCCC[N+]1(C)CCCCC1.N#C[N-]C#N [1-butyl-1-methylpiperidinium dicyanamide]
[1]
Conditions	mass density [kg/m3]	viscosity [mPa·s]
298.15 K	1016.13	123.3
303.15 K	1012.98	92.97
308.15 K	1010.65	75.58
313.15 K	1007.92	60.93
318.15 K	1005.2	49.79
323.15 K	1002.47	41.31
328.15 K	999.77	34.72
333.15 K	997.08	29.45
338.15 K	994.39	23.31
343.15 K	991.72	21.98
